Data set [1] concerns D425Med and D458Med cells. Nature of the data set: Gene expression profiling (Illumina HT-12 v4 BeadChip). The class given is cell-based. Here is the method:
Data are z-transformed. The cutoff criteria for each gene are fold change >2, sample intensity >10, and p-value <0.05. […] To validate the gene expression analysis and target prediction results, it was determined whether miR-584-5p reduced HDAC1/eIF4E3 expression by binding to their 3′-untranslated regions (3′-UTRs). […] Also shown are the portion of the miR-584-5p sequence (SEQ ID NO: 15; UAUGGUU) that binds to the wild-type 3′UTR and seed sequence mutant (SEQ ID NO: 16; […], top panel; and SEQ ID NO: 17; […]; bottom panel). Also shown is miR-584-5p seed sequence mutated sequences. […] Values were normalized to firefly luciferase, which served as an internal control. The p-values were calculated using standard Student t-tests. Error bars represent mean±SEM. […] The p-values were calculated using standard Student t-tests.

The test system of data set [2] is DAOY cells stably expressing green fluorescent protein (GFP)-luciferase. Kind of data set: Orthotopic intracranial tumor xenograft, bioluminescence imaging and survival.
Protocol: For in vivo studies, orthotopic intracranial transplantation of the scrambled and miR-584-5p-transfected DAOY cells stably expressing green fluorescent protein (GFP)-luciferase was performed. […] The p-values were determined by the sum-of-squares F test. Error bars represent mean±SEM. […] The p-value was determined using the log-rank (Mantel-Cox) test. Error bars represent SE. ****, p<0.0001; ***, p<0.001.
Animals and intracranial xenografts. Athymic nude mice (nu/nu) were obtained from Harlan, USA. Three- to 5-week-old athymic nude mice (nu/nu) were anesthetized using isoflurane by inhalation. Using a Hamilton syringe, 1 million cells were stereotactically implanted into the right corpus striatum at a depth of 3.5 mm at a point 2.5 mm lateral to the midline and 1.5 mm anterior to the bregma. After the surgery, the animal recovered on a heating pad in a normal mouse cage to maintain its body temperature at 37°-37.2° C. An ocular lubricating ointment (AKORN) was administered until spontaneous blinking resumed. Starting from week 2, control group animals received dimethyl sulfoxide, whereas VCR group animals received 1 mg of VCR (Sigma-Aldrich) per kg of body weight intraperitoneally once per week for 6 weeks. The Xenogen Small-Animal Imaging System was used for subcellular imaging in live mice once per week. Animals were killed, and brains were fixed and analyzed.
The test system of another data set is D458Med cells. Kind of data set: miRNA mimic library screen, CellTiter-Glo cell viability. In kind it is cell-based. The following applies: screen of 1,902 miRNA mimics, VCR at IC20. The method, then:
To identify miRNAs that may sensitize VCR response in MB, a high-throughput screening platform was combined with a library of 1,902 chemically synthesized human miRNA mimics. The miRNAs are arrayed in a one-miRNA-one-well format in 96-well microtiter plates. Reverse transfection of Group 3/c-Myc-amplified D458Med cells was performed in triplicate in the presence and absence of a sublethal dose of VCR, which was optimized in four MB cell lines before the screen (FIG. 2A). Cells were subjected to VCR at an IC20 lethal concentration for 72 hours after 48 hours of transfection, and cell viability was measured (FIG. 1A). Candidate miRNAs were prioritized for validation by functional and interaction assays using standard Student t-tests (with pooled variance), false discovery rate (Q=0.5%), and by using the magnitude of response (lowest 2.5 percentile of the distribution of the μVCR/μControl ratios).
miRNA mimic library screen. The primary screen was conducted using MI00200 MISSION microRNA Mimic v.17, in which miRNA mimics were arrayed in a one-miRNA-one-well format in 96-well microtiter plates. […] Cell viability was assessed using CellTiter-Glo (Promega, Madison, Wis., USA) according to the manufacturer's protocol. ath-miR-416 or cel-miR-243 was added as a negative control, whereas siRNA against PLK-1 was used as a positive control in each plate. […]

The subject of a further data set is 3′-UTR of HDAC1. Nature of the data set: Dual luciferase 3′-UTR reporter assay (HDAC1). The class given is cell-based. To be noted: miR-584-5p mimic in comparison with scrambled. Here is the method: Dual luciferase assay. Wild-type or mutant 3′-UTR segments of the eIF4E3 and HDAC1 gene were cloned downstream of the luciferase gene in pGL3-promoter vector at the SacI and SpeI restriction sites. HEK293 cells were cotransfected with Renilla luciferase vector (pRLnull 380) and firefly luciferase vector containing pGL3-wt-eIF4E3; pGL3-mut-eIF4E3; or pGL3-wt-HDAC1, pGL3-mut-HDAC1, or pGL3 overnight and incubated in fresh complete medium for an additional 48 hours after transfection. Cells were then transfected with miRNA mimic (Invitrogen) for 24 hours. Next, cells were harvested with 1× passive lysis buffer (Promega) and luciferase activity was read using GLOMAX 20/20 luminometer (Promega).
Data are z-transformed. The cutoff criteria for each gene are fold change >2, sample intensity >10, and p-value <0.05. […] To validate the gene expression analysis and target prediction results, it was determined whether miR-584-5p reduced HDAC1/eIF4E3 expression by binding to their 3′-untranslated regions (3′-UTRs). […] Also shown are the portion of the miR-584-5p sequence (SEQ ID NO: 15; UAUGGUU) that binds to the wild-type 3′UTR and seed sequence mutant (SEQ ID NO: 16; […], top panel; and SEQ ID NO: 17; […]; bottom panel). Also shown is miR-584-5p seed sequence mutated sequences. […] The p-values were calculated using standard Student t-tests. […] The p-values were calculated using standard Student t-tests.

Consider “miR-584-5p: microRNA mimic; nucleotide sequence UUAUGGUUUGCCUGGGACUGAG (SEQ ID NO: 1); purchased from Thermofisher (chemistry not given here)”, for which the TUBB4 expression result in data set [1] (confirmed by real-time PCR) was “among the highly downregulated genes”. The FOXO1 levels result in data set [1] (miR-584-5p-treated MB cells) was “did not change”. Also, the MB tumor growth result in data set [2] (transfected DAOY cells, in comparison with scrambled-transfectant tumor) is on record as “dramatically reduced MB growth”. Besides, the survival of mice entry in data set [2] (vs scrambled-transfectant group, Kaplan-Meier) was “lived significantly longer”. Besides, the “difference in cell viability in VCR-treated MB cells in comparison with untreated cells” value in the data set on D458Med cells was “highest magnitude of difference in cell viability”. Also, in the data set with 3′-UTR of HDAC1, the “luciferase activity, HDAC1 3′-UTR with mutated miR-584-5p binding sites” value is reported as “no change in luciferase activity” and the “luciferase activity, wild-type HDAC1 3′-UTR construct” value is “significantly reduced”.

The record behind these values is patent US20210071180A1, “MICRORNA 584-5P COMPOSITIONS AND METHODS FOR TREATING CANCER” (BOARD OF REGENTS, THE UNIVERSY OF TEXAS SYSTEM, priority 2018, published 2021).
